`CCCCc1c(C(=O)OCC)sc2ccc([N+](=O)[O-])cc12` showed a melting point of 92 to 93 °C.

`CC(C)(C)OC(=O)CCc1csc(CCNc2nc(N)c3ncn(C4OC(CO)C(O)C4O)c3n2)c1` (stereo not drawn) showed a melting point of 120 to 124 °C.

Consider `COc1cc2c(cc1C(F)(F)F)N(C(=O)Nc1ccc(F)c(-c3cccnc3)c1)CC2`, for which the melting point is 210 to 212 °C.

`COC(C)c1ccc(O)cc1` (single isomer, unassigned; (+)) displayed a melting point of 114 to 115 °C.

Consider `CC1=NN=C(c2cc3ccccc3s2)c2cc3oc(=O)[nH]c3cc2C1`, for which the melting point lay within 338 to 340 °C.

On to `Cc1ccc(F)c([Si](C)(C)C)c1C#N`, for which the melting point was 71 to 73 °C.

Molecule `COc1ccc(OC)c2c1C[C@@H](O)[C@H](NC(C)C)C2` (relative stereo) yielded a melting point of 144 to 145 °C.

`O=C1N(Cc2ccccn2)c2ccccc2C12COc1cc3c(cc12)CCO3` (stereo not drawn) registered a melting point of 84 to 85 °C.

In turn, `N#Cc1cccc(CN2CCc3ccccc32)c1` gave a melting point of 54.5 to 56 °C.

Molecule `CCC(C)CC1OC(CC(=O)Nc2ccc(F)c(CCC(=O)O)c2)C(=O)N(CC(C)(C)CO)c2ccc(Cl)cc21` (stereo not drawn) displayed a melting point of 123 to 125 °C.

The molecule `CC(=O)SCCC(=O)N1c2cc(C)ccc2CCC1C(=O)O` (stereo not drawn) gave a melting point of 119 to 122 °C.

`COc1ccccc1N1CCN(C(=O)OC(C)(C)C)CC1` returned a melting point of 70 to 71 °C.

On to `N#Cc1[nH]c2ccc(Cl)cc2c1-c1c(F)cccc1F`, for which the melting point fell in the range of 199 to 200 °C.

`CNC(=S)NS(=O)(=O)c1cc(CCNC(=O)/C=C/c2cccs2)ccc1OCCc1ccccc1` gave a melting point of 74 °C.

`COc1ncc(C(=O)N(C)Cc2cc(C(F)(F)F)cc(C(F)(F)F)c2)c(-c2ccccc2)n1` registered a melting point of 101 to 102 °C.

Consider `COC(=O)c1nc2ccc(C=O)cc2cc1C`, for which the melting point was 118 to 121 °C.

Take `FC(F)(F)c1cc(Cl)c(-n2ncc(-c3nc(Br)c(Br)[nH]3)n2)c(Cl)c1`: the melting point is 234 to 235 °C.

In turn, `CCOC(=O)c1ccc(-c2csc(-c3ccc(Cl)cc3)n2)cc1` returned a melting point of 105 to 106 °C.

In the case of `C/C(=N\O)c1cccc(NC(=O)NCC(=O)N2[C@@H](C(=O)OC(C)(C)C)CC[C@H]2c2ccccc2)c1` (racemic), the melting point turned out to be 118 °C.

`Cc1ccc(-c2nc(N)nc(N)n2)cn1` displayed a melting point of more than 260 °C.

As to `Oc1ccc(-c2ncc3ncc(Nc4cccnc4)cc3n2)cc1`, the melting point was more than 268 °C.

`COC(=O)C(C)(C)CCCOc1ccc(NC(=O)C(C)(C)CCCOc2cc(C)ccc2C)cc1`: the melting point was in the range of 62 to 63 °C.

On to `CCN1CCC(=O)N(c2c(C)cccc2Cl)C1=S`, for which the melting point fell in the range of 141 to 144 °C.

`O=C(O)CCC(CC=Cc1ccccc1)(C(=O)C=Cc1ccc(Cl)cc1)c1ccccc1` (stereo not drawn) yielded a melting point of 135 to 140 °C.

`CCCCCCCCC=CCCCCCCCC(=O)CCCNC(=O)CCNC(C)=O` showed a melting point of 123 to 125 °C.

`CC(N)=CC(=O)CS(=O)(=O)NC(C)C` yielded a melting point of 119 to 121 °C.

`CN(C(CCN1C(=O)c2ccccc2C1=O)C(=O)NO)S(=O)(=O)c1ccc(Oc2cccc(Cl)c2)cc1` (stereo not drawn) registered a melting point of 81 to 84 °C.

Molecule `O=S1(=O)NCc2ccccc2O1` came in with a melting point of 89 to 90 °C.

The molecule `Cc1c(C)c2c(c(C)c1N)C(c1ccc(F)cc1)C(C)(C)O2` (stereo not drawn) yielded a melting point of 126 to 127 °C.

Take `CNc1ccc(-c2nc(C(=O)Nc3nccs3)c(-c3cccc(OC)c3)[nH]2)cc1`: the melting point was 248 to 251 °C.

The molecule `CCOC(=O)C1=C(C)NC(c2ccc([N+](=O)[O-])cc2)=C(C(=O)OCC)C1c1cccc([N+](=O)[O-])c1` (stereo not drawn) came in with a melting point of 176 to 177 °C.

Molecule `O=C1C(=O)c2ccccc2C2=C1SCC(COc1cccnc1)O2` (stereo not drawn) yielded a melting point of 153 to 155 °C.

Consider `O=C(c1ccccc1)c1cccc2c(Cl)c[nH]c12`, for which the melting point lay within 145 to 149 °C.

In turn, `O=C(Nc1ccc(CN2C(=O)[C@H]3CCC[C@H]3Nc3ccccc32)cc1)Oc1ccccc1` (relative stereo) came in with a melting point of 183 to 184 °C.

As for `Cc1ccsc1-c1ccc(C(C)C(=O)O)cc1` (stereo not drawn), the melting point fell in the range of 95 to 96 °C.

Turning to `NCCCc1cn(S(=O)(=O)c2c(Cl)nc3sccn23)c2ccc(F)cc12`, the melting point lay in the range of 139 to 141 °C.

`COc1ccc(CCNc2nc(Cl)nc(NCCc3ccc(OC)c(OC)c3)n2)cc1OC`: the melting point worked out at 186 °C.

With `CCCN(CCC)C(N)=C(C#N)C(N)=S`, the melting point was in the range of 141 to 144 °C.

As for `CN(C)c1ccc2c(c1)O/C(=C1/Oc3cc(N(C)C)ccc3C1=O)C2=O`, the melting point is more than 320 °C.

`Fc1cccc(CSc2nnc(-c3ccc4occc4c3)o2)c1`: the melting point lay in the range of 112 to 113 °C.

As for `CCOC(=O)CC1CCN(C(=O)c2ccccc2)CC1`, the melting point lay within 47 to 48 °C.

Turning to `COc1ccc(OC)c2c1C(=O)c1ccc(-c3nnn[nH]3)cc1C2=O`, the melting point is 260 to 262 °C.

In turn, `O=C(O)c1cn(-c2c[nH]nn2)c2cc(F)c(F)cc2c1=O` showed a melting point of 215 to 224 °C.

Regarding `CCOc1nn(CCc2ccc(OCc3nc(-c4ccccc4)oc3C)cc2)cc1CCC(=O)O`, the melting point was 110 to 111 °C.

Consider `O=C(NCCO)c1cccc(-c2cccc3cc(Cc4cccc(C(F)(F)F)c4)oc23)c1`, for which the melting point lay in the range of 140 to 141 °C.

For the molecule `CCOCCCN1C=Cc2cc(S(N)(=O)=O)sc2S1(=O)=O`, the melting point was in the range of 131 to 132 °C.

In turn, `CCOP(=O)(CNC(=O)C[C@H]1O[C@H](c2cccc(OC)c2OC)c2cc(Cl)ccc2N(CC(C)(C)CO)C1=O)OCC` had a melting point of 138 to 140 °C.

For the molecule `CC(Br)=C(c1ccc(F)cc1)c1ccc(F)cc1`, the melting point fell in the range of 53 to 54 °C.

Turning to `COC(=O)C(c1ccccc1)C1CCN(c2ccc([N+](=O)[O-])cc2)CC1` (stereo not drawn), the melting point turned out to be 124 °C.

For `CN(C)c1cc(Oc2cccc(C(F)(F)F)c2)nc(C(=O)NN=CC(F)(F)C(F)(F)F)c1`, the melting point lay in the range of 108 to 109 °C.

The molecule `CC(C)CN1C(=O)C2CC(c3ccc(N)cc3)(C2)C1=O` came in with a melting point of 158 to 160 °C.

Molecule `CNS(=O)(=O)CCc1ccc2[nH]ccc2c1` returned a melting point of 122 to 124 °C.

In turn, `COC(=O)C(NC(=O)c1ccccc1)c1ccc(-c2ccc(S)cc2)cc1` (stereo not drawn) showed a melting point of 150 to 152 °C.

As to `CCOC(=O)c1ccc(NCCCCCCc2ccccc2)cc1`, the melting point was in the range of 69.5 to 72.5 °C.

Molecule `CN(CCC1=C(C#N)C(c2cccc3nonc23)c2c[nH]nc2N1)C(=O)OC(C)(C)C` (stereo not drawn) registered a melting point of 240 °C.

`CCOC(=O)c1ccc(Cl)nn1` registered a melting point of 145 to 150 °C.

Molecule `CCCCCCCCCCCCCCCCCCN1CC(O)C1` displayed a melting point of 75.5 to 78 °C.

In the case of `O=C(NCC1Cc2cccc(-c3ccc(C(F)(F)F)cc3)c2O1)OCc1ccccc1` (stereo not drawn), the melting point lay within 100 to 102 °C.

The molecule `CN1Cc2c(-c3nc(CCl)co3)ncn2-c2cccc(Cl)c2C1=O` displayed a melting point of 249 to 251 °C.

As for `Cc1cc(C)n(C)c(=O)n1`, the melting point was in the range of 58 to 60 °C.

Turning to `COc1cc(NC(=O)CCCCCN2CCN(CCO)CC2)c2nccc(C)c2c1`, the melting point lay within 88 to 90 °C.

`CC(C)(C)OC(=O)NC[C@H]1CN(c2ccc3c(c2)CCCc2cn[nH]c2-3)C(=O)O1` displayed a melting point of 85 to 100 °C.

`COC(=O)CC(C(=O)OC)c1ccccc1` (stereo not drawn) came in with a melting point of 54 to 56 °C.

`CC(C=Cc1ccccc1)NC(=O)c1ccccc1` (racemic) registered a melting point of 135 °C.

In turn, `Clc1nc(N2CCCCC2)c2nc(Cl)nc(N3CCCCC3)c2n1` yielded a melting point of 240 to 241 °C.

As for `Cn1cnnc1C(c1ccc(Cl)cc1)c1ccc2c(c1)c(-c1cccc(Cl)c1)cc(=O)n2C` (stereo not drawn), the melting point turned out to be 153 °C.

In the case of `CCc1nnc(-c2ccc(N)cc2)n1-c1ccc(OC)cc1`, the melting point amounted to 210 °C.

`O=C(O)CCc1cc2cc(-c3ccc(C(F)(F)F)cc3)ccc2n1S(=O)(=O)c1ccccc1` displayed a melting point of 162 °C.

Take `COCCOC(=O)C1=C(O)c2ccccc2S(=O)(=O)N1`: the melting point was in the range of 120 to 122 °C.

The molecule `CC(=O)OC1CSC(Oc2cncc(-c3cccc(C#N)c3)c2)C(OC(C)=O)C1OC(C)=O` (stereo not drawn) returned a melting point of 130 to 131 °C.

On to `CCC1CCC(=O)C=C1c1ccc(OC(CC)C(=O)O)c(Cl)c1Cl` (stereo not drawn), for which the melting point lay in the range of 160 to 162 °C.

Molecule `CCCOc1ccccc1-c1nc2nc(N)ncc2c(=O)[nH]1` yielded a melting point of 261 to 262 °C.

Turning to `Fc1cc2c(Nc3ccc(OCc4cccc(Cl)c4)c(Cl)c3)ncnc2cn1`, the melting point is 196 to 198 °C.

`CC(=O)NC(=O)OC[C@]1(C)S[C@@H]2[C@H](NC(=O)Cc3ccccc3)C(=O)N2[C@H]1C(=O)OCc1ccc([N+](=O)[O-])cc1` registered a melting point of 83 to 85 °C.

As for `Cc1ccc(-c2ccccc2-n2c(C)n[nH]c2=O)cc1`, the melting point lay within 102 to 104 °C.

Turning to `CC(C)Oc1cc(OC(C)C)c2c(=O)cc(Sc3ccc(O)cc3)oc2c1`, the melting point was in the range of 234 to 236 °C.

For `CC(C)Cc1ccc(-c2cc(C(=O)O)cc(-c3ccc(Cl)cc3)n2)cc1`, the melting point lay in the range of 220 to 221 °C.

Take `COc1ccc(-n2cnc3c(-c4ccc(C(F)(F)F)cc4F)ncnc32)cc1`: the melting point was 181 to 183 °C.

Molecule `CNC(C)Cc1ccc(CCCC(=O)O)cc1` (stereo not drawn) yielded a melting point of 170 to 172 °C.

`Cc1ccc(-c2noc3c(Cl)c(OCC(=O)O)ccc23)cc1` displayed a melting point of 257 to 260 °C.

The molecule `CCCCCCCCCCCCCCCC(=O)NO` displayed a melting point of 100 to 101 °C.

The molecule `CC1=NNC(=O)c2cccc3[nH]cc1c23` gave a melting point of 335 to 336 °C.

In the case of `O=C(Cc1ccccc1)Nc1ccc2oc3c(c2c1)CCCC3`, the melting point was in the range of 180 to 181 °C.

Take `CCCCCOc1ccc(CCOc2ccc(/C=C(\OCC)C(=O)O)cc2OCCCC)cc1F`: the melting point was 102 °C.

`CC(=O)SCC(Cc1ccccc1)NC(=O)N1CCN(c2ccc(Cl)cc2)CC1` (single isomer, unassigned; (+)) came in with a melting point of 140 °C.

In turn, `Cc1cccc(C)c1CNc1cc(C(=O)N(C)C)cc2c1nc(C)n2C` registered a melting point of 142 to 143 °C.

Take `CC(C)(O)C#Cc1cc(C(F)(F)F)cc(C(F)(F)F)c1`: the melting point fell in the range of 74.5 to 74.8 °C.

As for `CC1(C)OC(=O)C(Oc2ncnc3ccccc23)=C1c1ccc(S(C)(=O)=O)cc1`, the melting point lay in the range of 174 to 177 °C.

The values are drawn from a melting point compilation (Tetko et al.; mined from patent text by program, amines drawn as free bases though some values may be those of a salt).
